Experimental data from patent publication US10988523B2, “Modified lipidated Relaxin B chain peptides and their therapeutic use” (Sanofi, priority 2018, dated 2021).
*1 amine or outer side, *2 acyl side, *3 side chain or, on linkers, in order; H or OH if unused. Where a SMILES comes first, the peptide text is derived from it. Side-chain parts run from the residue outwards. [ ]: non-standard residue; d: D form. The star is where a group is joined. γGlu = O=C(O)[C@H](CCC(=O)[*:2])N[*:1]; Stearoyl = CCCCCCCCCCCCCCCCCC(=O)*; Palmitoyl = CCCCCCCCCCCCCCCC(=O)*; Nle = CCCC[C@H](N)C(=O)O; AEEA = NCCOCCOCC(=O)O; Aib = CC(C)(N)C(=O)O

Columns and labels:
RXFP1 = target: T1, RXFP1 (Homo sapiens, UniProt Q9HBX9); assay: OVCAR5 cAMP assay (HTRF), RXFP1 agonist activity; type: cell-based; conditions: OVCAR-5; maximal cAMP relative to H2-relaxin maximum (100%); read-out: EMax, OVCAR 5 cells (cAMP)
T1 construct: OVCAR5 cells expressing endogenous RXFP1; endogenous in cells; host or cells: OVCAR5 cells
T1 sequence (Q9HBX9 1-757): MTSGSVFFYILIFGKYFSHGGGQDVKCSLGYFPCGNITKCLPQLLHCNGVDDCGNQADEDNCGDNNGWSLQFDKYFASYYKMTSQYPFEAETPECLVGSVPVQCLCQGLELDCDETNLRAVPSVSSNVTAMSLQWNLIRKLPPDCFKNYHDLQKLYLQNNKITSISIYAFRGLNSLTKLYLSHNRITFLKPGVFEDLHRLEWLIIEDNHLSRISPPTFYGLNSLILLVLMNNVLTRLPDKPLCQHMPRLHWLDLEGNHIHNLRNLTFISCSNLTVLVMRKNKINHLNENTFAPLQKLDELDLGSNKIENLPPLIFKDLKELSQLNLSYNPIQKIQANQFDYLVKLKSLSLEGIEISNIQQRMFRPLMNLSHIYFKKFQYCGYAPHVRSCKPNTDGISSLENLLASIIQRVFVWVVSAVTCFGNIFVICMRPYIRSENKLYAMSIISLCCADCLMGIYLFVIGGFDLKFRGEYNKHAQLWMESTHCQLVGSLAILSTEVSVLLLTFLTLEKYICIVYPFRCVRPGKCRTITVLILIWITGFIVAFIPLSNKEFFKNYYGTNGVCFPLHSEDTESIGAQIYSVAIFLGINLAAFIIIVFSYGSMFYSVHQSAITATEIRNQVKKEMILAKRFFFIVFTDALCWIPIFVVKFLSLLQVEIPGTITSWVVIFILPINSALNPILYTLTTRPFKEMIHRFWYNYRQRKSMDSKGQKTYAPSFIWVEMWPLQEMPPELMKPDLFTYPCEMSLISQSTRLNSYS
In short: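 OVCAR5 cells (endogenous RXFP1) pretreated 40 min at 37° C with 1 mM IBMX, then exposed to peptides in serum-free medium for 30 min at 37° C. Lysate cAMP read by HTRF; EC50 from variable-slope sigmoidal fit; Emax as % of H2-relaxin maximal cAMP in same run.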

[1] = Pharmacokinetic (PK) determination after i.v. or s.c. administration to rats; type: in vivo, Sprague Dawley rats; conditions: Sprague Dawley, Rat PK; for C0 / half-life: iv, 1 mg/kg i.v.; for C0: extrapolated plasma concentration at t=0, read-out: C0; for half-life / Cmax / Tmax / bioavailability: plasma; for half-life: read-out: T½ (converted); for Cmax / Tmax: sc, 3 mg/kg s.c.; for bioavailability: subcutaneous, 3 mg/kg s.c. vs 1 mg/kg i.v., dose-corrected AUC ratio
In short: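 Sprague Dawley rats received peptide in PBS at 1 mg/kg i.v. or 3 mg/kg s.c., dose corrected for salts, solvent and purity. Plasma analysed by LC/MS after protein precipitation; non-compartmental PK, BLQ values set to zero, F% as dose-corrected s.c./i.v. AUC ratio.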

[2] = Stability testing of peptides in rat plasma or blood; type: in vitro ADME; conditions: 37° C.; for Rat plasma stability % remaining T = 0: rat plasma or blood, T = 0 (reference), 5 μM; for remaining at 1 h, 5 µM / remaining at 4 h, 5 µM: whole blood, rat blood; for remaining at 1 h, 5 µM: read-out: Rat stability in blood % remaining 1 h; for remaining at 4 h, 5 µM: read-out: Rat stability in blood % remaining 4 h
Experimental: (§1) Prior to the testing of stability in plasma (or blood) of a peptide batch, its purity (HPLC-UV) was determined.
(§2) Rat and Human plasma: anti-coagulant sodium or lithium heparin.
(§3) Rat and Human blood: anti-coagulant sodium or lithium heparin. • Stock solution: • 100 μM solution of study compound in 50 mM Phosphate buffer pH 7.4. • 950 μL plasma (or blood) was pre-incubated for 5 min at 37° C. 50 μL of compound stock solution was added. Final compound concentration=5 μM. Vortex and transfer 1504, plasma (or blood) into an Eppendorf for each time point. The time points […] were carried out in duplicate for each species.
(§4) After incubation 150 μL, plasma (or blood) was extracted with 600 μL, Acetonitrile containing with 1% TFA. Then, vortexed and centrifuged 10 min at 14600 rpm. 200 μL supernatant was dried under N2. The sample was reconstituted in 200 μL of H2O/CH3CN 98/2+0.1% FA+50 ng/ml Labetalol and analyzed using the analytical system used in solubility and stability studies.
(§5) For determination of the amount of the remaining peptide, the peak areas of the target compound at t0 and each time point […] were compared, resulting in “% remaining peptide”, following the equation: % remaining peptide=[(peak area peptide time)×100]/peak area peptide t0. The stability is expressed as “% remaining peptide”.

[3] = Stability testing of peptides in human plasma or blood; type: in vitro ADME; conditions: 37° C.; for Human Plasma stability % remaining T = 0: human plasma or blood, T = 0 (reference), 5 μM
Experimental: as §1, §2, §3, §4, §5

SMILES	Emax (RXFP1)	C0 [1]	half-life [1]	Cmax [1]	Tmax [1]	bioavailability [1]	Rat plasma stability % remaining T = 0 [2]	remaining at 1 h, 5 µM [2]	remaining at 4 h, 5 µM [2]	Human Plasma stability % remaining T = 0 [3]	remaining at 1 h, 5 µM ([3]; whole blood, human blood, 1 h, read-out: Human stability in blood % remaining 1 h)	remaining at 4 h, 5 µM ([3]; whole blood, human blood, 4 h, read-out: Human stability in blood % remaining 4 h)
CCCCCCCCCCCCCCCCCC(=O)N[C@@H](CCC(=O)N[C@@H](CCC(=O)N[C@@H](CCC(=O)NCCCC[C@H](NC(=O)[C@H](CCCCN)NC(=O)[C@H](CCCNC(=N)N)NC(=O)C(C)(C)NC(=O)[C@H](CO)NC(=O)[C@H](Cc1c[nH]c2ccccc12)NC(=O)[C@@H](NC(=O)[C@H](CO)NC(=O)[C@H](CCCC)NC(=O)CNC(=O)[C@H](CCC(=O)O)NC(=O)C(C)(C)NC(=O)C(C)(C)NC(=O)[C@@H](NC(=O)[C@H](CCC(N)=O)NC(=O)[C@H](C)NC(=O)[C@H](CCCNC(=N)N)NC(=O)[C@@H](NC(=O)[C@H](CCCCN)NC(=O)[C@H](CCC(=O)O)NC(=O)[C@H](CCCNC(=N)N)NC(=O)CNC(=O)[C@H](CCC(=O)O)NC(=O)[C@H](CC(C)C)NC(C)=O)C(C)C)[C@@H](C)CC)[C@@H](C)O)C(N)=O)C(=O)O)C(=O)O)C(=O)O [compound 9] (Ac-LEGREKVRAQI[Aib][Aib]EG[Nle]STWS[Aib]RKK([γGlu-γGlu-γGlu-Stearoyl])-NH2)	95%	4.99 µM	3 h	2.32 µM	6 h	42%	100%	84%	92%	100%	–	–
CCCCCCCCCCCCCCCC(=O)N[C@@H](CCC(=O)N[C@@H](CCC(=O)N[C@@H](CCC(=O)NCCOCCOCC(=O)NCCOCCOCC(=O)NCCOCCOCC(=O)NCCCC[C@H](NC(=O)[C@H](CCCCNC(C)=O)NC(=O)[C@H](CCCCN)NC(=O)[C@H](CCCNC(=N)N)NC(=O)C(C)(C)NC(=O)[C@H](CO)NC(=O)[C@H](Cc1c[nH]c2ccccc12)NC(=O)[C@@H](NC(=O)[C@H](CO)NC(=O)[C@H](CCCC)NC(=O)CNC(=O)[C@H](CCC(=O)O)NC(=O)C(C)(C)NC(=O)C(C)(C)NC(=O)[C@@H](NC(=O)[C@H](CCCCNC(C)=O)NC(=O)[C@H](C)NC(=O)[C@H](CCCNC(=N)N)NC(=O)[C@@H](NC(=O)[C@H](CCCCN)NC(=O)[C@H](CCC(=O)O)NC(=O)[C@H](CCCNC(=N)N)NC(=O)CNC(=O)[C@H](CCC(=O)O)NC(=O)[C@H](CC(C)C)NC(C)=O)C(C)C)[C@@H](C)CC)[C@@H](C)O)C(N)=O)C(=O)O)C(=O)O)C(=O)O [compound 63] (Ac-LEGREKVRAK(Ac)I[Aib][Aib]EG[Nle]STWS[Aib]RKK(Ac)K([AEEA-AEEA-AEEA-γGlu-γGlu-γGlu-Palmitoyl])-NH2)	80%	6.02 µM	5.72 h	2.4 µM	10 h	47%	100%	95%	79%	100%	93%	87%
